# Calls of active or inactive are those of the source.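 How the source made its calls: active means fitted concentration giving half of the maximal binding block below 66 µM; inactive means the rest.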
# Biological target: anti-desmoglein 3 scFv antibody binding to human desmoglein 3 (DSG3)
# Assay: inhibitors of anti-DSG3 scFv binding to DSG3, dose response, biochemical, DSG3-coupled beads, scFv-GFP, flow cytometry, Cherry Pick 1 (AID 602251);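 on binding response, lower = inhibition: 100% = DMSO vehicle binding and 0% = soluble DSG3 blocking control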
# Settings: not given
row,Structure (SMILES),EC50 [µM]
1,O=C(NC1CCCCC1)C(c1ccc(O)cc1)N(CC1CCCO1)C(=O)C1COc2ccccc2O1 (stereo not given),37.7
2,CC1CCN(S(=O)(=O)c2ccc3c(c2)c(=O)c(C(=O)NCc2cccs2)cn3C)CC1,55.8
3,COc1ccc(NC(=O)CSc2nc3c([nH]c4ccccc43)c(=O)n2C)c(OC)c1,22.4
4,COCCCNC(=O)c1c(N)n(-c2ccc(S(N)(=O)=O)cc2)c2nc3ccccc3nc12,25.6
5,C=CCn1c(O)c(C2=c3ccccc3=NC2=O)s/c1=N/c1nccs1,39.6
6,Nc1ccc2nc(-c3cccc(-c4nc5ccc(N)cc5[nH]4)c3)[nH]c2c1,65.2
7,O=C(O)c1cccc2c1NC(C(=O)O)C1CC(Sc3ccccc3[N+](=O)[O-])C(Cl)C21 (stereo not given),29
8,Nn1c(SCC(=O)Nc2cc(C(F)(F)F)ccc2Cl)nncc1=O,29.6
9,O=C(O)c1cccc(-n2cccc2/C=C2/NC(=O)N(c3ccc(Cl)cc3)C2=O)c1,11.7
10,O=c1c2c([N+](=O)[O-])cc([N+](=O)[O-])cc2sn1Cc1ccccc1,9.8
11,CCc1nnc(NC(=O)CSc2nncc(=O)n2N)s1,55
12,CCC(=C/c1sc2ccc3ccccc3c2[n+]1C)/C=C1\Sc2ccc3ccccc3c2N1C,25.9
13,COCCn1c(=NC(=O)CCS(=O)(=O)c2ccccc2)sc2cc(C(=O)OC)ccc21,25.4
14,COc1ccccc1NC(=O)c1cc(C(=O)Nc2ccccc2OC)cc([N+](=O)[O-])c1,25.3
15,CCC(CC)C(=O)Nc1cccc(S(=O)(=O)c2cccc(NC(=O)C(CC)CC)c2)c1,55
16,O=[N+]([O-])c1ccc(N=NNc2ccc([N+](=O)[O-])cc2)cc1,58.8
17,Cc1ccc(NC(=O)CN2C(=O)N/C(=C/c3cccn3-c3ccc(C(=O)O)cc3)C2=O)cc1,48.4
18,CCCCOC(=O)Nc1sc2nc(C)cc(C)c2c1-n1cccc1,41.9

# Same assay, conditions: at 66.1 µM (top of the series)
row,Structure (SMILES),"binding response, lower = inhibition"
1,COc1ccc(C(=O)Nc2ccc(Oc3ncnc4sc(-c5ccccc5)cc34)cc2)cc1OC,inactive
2,O=C(COC(=O)c1ccc(S(=O)(=O)N2CCc3ccccc3C2)cc1)NC1CCS(=O)(=O)C1 (stereo not given),inactive
3,NC(=O)c1ccc(NC(=O)CSc2nnc(-c3ccc4c(c3)OCO4)o2)cc1,inactive
4,COc1ccc(NC(=O)c2ccc3c(c2)C(=O)N(Cc2cccnc2)C3=O)c(OC)c1,inactive
5,O=C(Nc1ccc(Nc2ccccc2)cc1)c1ccc(Br)cc1,inactive
6,S=c1[nH]ncn1/N=C/c1ccccc1,inactive
7,N#Cc1cn(-c2ccccc2)nc1-c1ccc2c(c1)OCCO2,inactive
8,COc1cc2sc3ccc(C#Cc4ccccn4)cc3c(=O)c2cc1OC,inactive
9,Cn1c2ccccc2c(=O)c2c(=O)n(Cc3ccco3)c(COc3ccccc3)nc21,inactive
10,CCCCN1C=C(C(=O)OC)C(c2ccccc2C(F)(F)F)C(C(=O)OC)=C1,inactive
11,CN(C)c1nc(N)ncc1-c1ccc(Oc2ccccc2)cc1,inactive
12,Cc1cccc(NC(=O)Cn2nnc(C(=O)NCc3cccs3)c2N)c1C,inactive
13,COc1ccc(NC(=O)Cn2nnc(C(=O)NCc3ccccc3)c2N)cc1Cl,inactive
14,CCc1ccc(OCC(=O)Nc2ccc(N3CCN(C(=O)c4ccccc4)CC3)cc2)cc1,inactive
15,CC(C)OC(=O)CSc1nc2c(cc1C#N)CCCCC2,inactive
16,Cc1c([N+](=O)[O-])cc(C(=O)Nc2ccc(NC(=O)c3ccco3)cc2)cc1[N+](=O)[O-],inactive
17,O=C(Nc1ccc2c(c1)OCO2)C1CCN(c2ccc(S(=O)(=O)N3CCOCC3)cc2)CC1,inactive
18,Cc1cc(SCC(=O)Nc2ccc3[nH]c(=O)[nH]c3c2)nc2ccccc12,inactive
19,Cc1ccc(-n2ncc3c(=O)[nH]c(SCC(=O)N4CCN(c5ccccc5)CC4)nc32)cc1,inactive
20,O=C(Nc1ccc(Nc2ccncc2)cc1)c1ccc(Nc2ccnc3ccc([N+](=O)[O-])cc23)cc1,inactive
21,COc1ccc(CNC(=O)c2ccc(-c3ccccc3)cc2)cc1OC,inactive
22,COc1ccc(-c2cn3c(C)c(C(=O)Nc4cccc(NC(C)=O)c4)sc3n2)cc1,inactive
23,O=C(NCCCN1CCOCC1)c1cc(-c2cccc(Br)c2)nc2ccccc12,inactive
24,COc1cccc(C(C(=O)NC2CCCCC2)N(CCN2CCOCC2)C(=O)C2COc3ccccc3O2)c1 (stereo not given),inactive

row,Structure (SMILES),"binding response, lower = inhibition"
1,COc1ccc(NC(=O)c2ccc3c(c2)C(=O)N(Cc2ccncc2)C3=O)cc1S(N)(=O)=O,inactive
2,O=C(NCc1ccccc1)c1ccc(C(=O)NCc2ccccc2)cc1,inactive
3,CN(C(=O)CSc1nc2cc([N+](=O)[O-])ccc2n1-c1ccc(F)cc1)C1CCS(=O)(=O)C1 (stereo not given),inactive
4,O=C1NN(c2cccc(Br)c2)C(=O)/C1=C/c1ccc(-c2cc([N+](=O)[O-])ccc2O)o1,inactive
5,COc1ccc(Cl)cc1NC(=O)CSc1nc(NS(=O)(=O)c2ccc(C)cc2)cc(=O)[nH]1,inactive
6,CC(=O)c1c(C)n(-c2ccc(C)cc2)c2ccc(O)cc12,inactive
7,CN(C(=O)COC(=O)c1ccc(-c2ccc(O)cc2)cc1)C1CCS(=O)(=O)C1 (stereo not given),inactive
8,Cc1cc(NC(=O)CSc2nnc(-c3c[nH]c4ccccc34)n2-c2ccc(F)cc2)no1,inactive
9,O=C(Cc1ccccc1)Nc1ccc(NC(=O)c2cccs2)cc1Cl,inactive
10,COc1ccc(N2CCN(C(=O)c3sc4nc(-c5ccc(F)cc5)cn4c3C)CC2)cc1,inactive
11,O=C(N/N=C1/C(=O)c2cccc3cccc1c23)c1ccc(Cl)cc1,inactive
12,CCc1ccc(-c2cc(C(=O)Nc3ccc(S(=O)(=O)NC(C)=O)cc3)c3ccccc3n2)cc1,inactive
13,COc1ccc(-c2cc(=O)oc3cc(OCC(=O)Nc4ccccn4)ccc23)cc1,inactive
14,CSCCC(NC(=O)C12CC3CC(CC(C3)C1)C2)C(=O)OCC(=O)c1ccc(C)cc1 (stereo not given),inactive
15,CN(C)Cc1cc(O)c(CN(C)C)cc1O,inactive
16,CCCNC(=O)c1c(N)n(-c2ccc(S(N)(=O)=O)cc2)c2nc3ccccc3nc12,inactive
17,O=C(O)CCC(=O)NCCC1=c2ccccc2=N/C1=C\c1c(O)n(Cc2ccc(F)cc2)c(=S)[nH]c1=O,inactive
18,O=C(Nc1nc2cc3c(cc2s1)OCCO3)c1ccc(N2C(=O)CCC2=O)cc1,inactive
19,CCOc1ccc(Nc2ncnc3c2cnn3-c2ccccc2)cc1,inactive
20,O=C(Nc1cccc2ccccc12)N1CCN(c2ccccc2)CC1,inactive
21,COc1ccc(C2=C(Nc3ccc(F)cc3)c3ccccc3C2=O)cc1,inactive
22,COc1ccc(NC(=O)c2ccc3c(c2)S(=O)(=O)c2ccccc2C3=O)cc1,inactive
23,CC(=O)Nc1ccc(-c2cc(-c3ccccc3)nc(-c3ccccc3)n2)cc1,inactive

# Reference: PubChem BioAssay AID602251 (NMMLSC, 2012)
